Test results reported in patent publication US20220370463A1, “STABILIZED C-FMS INTRACELLULAR FRAGMENTS (FICD) PROMOTE OSTEOCLAST DIFFERENTIATION AND ARTHRITIC BONE EROSION” (New York Society for the Relief of the Ruptured and …, priority 2019, published 2022).
“Also recorded” adds a separate entry of the source.

Assays:
[1] = test system: arthritic bone erosion; details: rheumatoid arthritis patients; cited from earlier work
[2] = test system: L-FICD generation; assay: Screening of 53 protease inhibitors from a protease library for L-FICD generation; type: cell-based
Description: To identify the protease(s) responsible for cleavage of H-FICD in an unbiased manner, we performed a screening of 53 protease inhibitors using a protease library. The best hits associated with the inhibition of L-FICD generation were MDL28170 and PD150606—two calpain inhibitors—along with MMP inhibitors and γ-secretase inhibitors. Calpain is the family of calcium-dependent cytosolic cysteine proteases expressed ubiquitously in mammals and many other organisms (Pfaff, M., Du, X. & Ginsberg, M. H. Calpain cleavage of integrin beta cytoplasmic domains. FEBS Lett 460, 17-22 (1999)), and calpain-dependent cleavages contribute to modulating various cellular functions such as apoptosis, proliferation and migration (Deshpande, R. V. et al. Calpain expression in lymphoid cells. Increased mRNA and protein levels after cell activation. J Biol Chem 270, 2497-2505 (1995). Svensson, L. et al. Calpain 2 controls turnover of LFA-1 adhesions on migrating T lymphocytes. PloS one 5, e15090, doi:10.1371/journal.pone.0015090 (2010).). […] Since calpain is activated by calcium, we examined if calcium signaling could compensate for M-CSF signaling to generate FICDs. In the absence of c-FMS signaling, calcium signaling was able to promote the cleavage of […] in the nucleus, and […] reversed the effect of calcium signaling on L-FICD processing (FIG.10C). […]

[3] = test system: FICD (mem, H-FICD, L-FICD); assay: FICD in membrane, cytoplasmic and nuclear fractions of human OCPs, immunoblot; type: cell-based; details: for generation of H-FICD and L-FICD and cellular distribution of FICDs: human CD14+ cells stimulated with ligand (20 ng/ml)
Method: (a) Human CD14+ cells were cultured with M-CSF (20 ng/ml) for 8 hours to induce early signals and then DAPT (10uM) was added for 2 days. Protein expression of c-FMS, Na+K+ pump, Lamin B1 and α-tubulin, as determined by immunoblot. ME; membrane extracts, CE; cytoplasmic extracts, and NE; nuclear extracts. (b) Immunohistochemistry of DAPI and c-FMS [middle]. […] Scale: 200×. (c) Cells were starved for three hours and then stimulated with M-CSF for the indicated times. (d and e) Cells were treated with Imatinib (0.3 μM, d) or c-FMS blocking antibody (5 μg) prior to the addition of M-CSF. Protein expression of FICD was measured by immunoblot. Lamin B1 and α-tubulin were used as controls for nuclear and cytoplasmic fractions, respectively. (f) Human CD14+ cells were cultured with M-CSF (20 ng/ml) for 8 hours to induce early signals and then MDL 28170(5 uM). Immunoblot with anti c-FMS and Lamin B1 antibodies. (g and h) Calpain 1, 5, and 6 were knocked down with siRNAs. Cells were cultured with M-CSF for 12 hours. (g) Efficiency of knockdown of Calpain 1, 5, and 6. (h) Immunoblot of c-FMS and Lamin B1. All data are shown as mean±SEM. *,p<0.05 by two-tailed, unpaired t-test (g). Representative results from at least three independent experiments.
(A and B) Human CD14+ cells were cultured with M-CSF (20 ng/ml) for 8 hours to induce early signals and then (A) MDL 28170(0, 1, 2, 5 uM) or (B) PD150606 (0, 2, 5 uM) was added for 2 days. Immunoblot with anti c-FMS and α-tubulin antibodies in whole lysates(n=3). (C) Immunoblot of nuclear lysates with c-FMS and Lamin B1 antibodies. Cells were cultured with M-CSF for 12 hours, and then M-CSF was removed. Cells were subsequently treated with or without CaCl2 (10 mM) for an additional 24 hours. (D) Osteoclastogenesis assay. Human CD14+ cells were cultured with M-CSF, RANKL and MDL28170 for 4 days. […] Black scale bar is 100 μm. […] First two calpain cleavage sites in cytoplasmic domains of c-FMS were used for FICD constructs. (F) A schematic diagram of a FICD construct. Representative results from at least three independent experiments.
Whole cell extracts were prepared by lysis in buffer containing 1× Lamin sample buffer (Bio-rad) and 2-Mercaptoethanol (Sigma) or RIPA buffer (Sigma). The cell membrane-permeable protease inhibitor, Pefablock (1 mM), was added immediately prior to harvest cells. The membrane proteins were extracted with Mem-PER™ Plus Membrane Protein Extraction Kit (Thermorfisher scientific; 89842) according to manufacturer's instructions. To extracts of nucleus protein, cells were incubated in buffer A (10 mM Hepes, pH 7.9, 1.5 mM MgCl2, 10 mM KCl, 0.1 mM EDTA, 0.1 mM EGTA, proteinase inhibitor cocktail (Complete, Roche) and 1 mM DTT) for 15 min at 4° C. NP-40 was added to a final concentration of 0.5%. Nucleus was collected by centrifugation (5000 rpm, 5 min). The pellets were lysed by Bioruptor-ultrasonicator (UCD400, Diagenode) in buffer B (20 mM Hepes, pH 7.9, 0.4M NaCl, 10 mM KCl, 1 mM EDTA, 1 mM EGTA, 10% Glycerol, proteinase inhibitor cocktail and 1 mM DTT) and collected the supernatant by centrifugation (12,000 rpm, 10 min). The protein concentration of nuclear extracts was quantitated using the Bradford assay (Bio-Rad; 5000001). For immunoblot, proteins were separated on 7.5 or 10% SDS-PAGE gels, transferred to polyvinylidene difluoride membranes (PVDF, Millipore; ISEQ00010), and detected by antibodies as listed in the figure legends.

[4] = test system: FICDs (c-FMS intracellular fragments); assay: FICD generation in M-CSF-cultured human CD14+ cells, immunoblot of whole lysates; type: cell-based; details: BB94 10 uM for 2 days after 8 hours M-CSF (20 ng/ml)
Method: FIGS. 8A-8I show c-FMS expression in synovial macrophages. (A) The levels of M-CSF in synovial fluids from patients with rheumatoid arthritis (RA, n=13) and osteoarthritis (OA, n=8) were measured. (B) Mass spectrometry analysis for proteins from ˜50 kDa bands (red box) identified c-FMS as one of top genes. An image of coomassie blue stained genes showing immunoprecipitated cells lysates with either anti-DDK-tag antibodies or IgG control. (C-G) Human CD14+ cells were cultured with M-CSF (20ng/ml). Immunoblot of c-FMS with different antibodies against C-terminal of c-FMS; (C) C-20, (D) D-8, and (E) #3152. Immunoblot of c-FMS with different antibodies against N-terminal of c-FMS; (F) #61701, (G) H-300. (H-I) Human CD14+ cells were cultured with M-CSF (20 ng/ml) for 8 hours to induce early signals, and then BB94 (10 uM) was added for 2 days. (H) Immunoblot with anti c-FMS and α-tubulin antibodies in whole lysates (n=3). (I) Soluble c-FMS was detected by ELISA (n=3). […] All data are shown as mean±SEM. *; p<0.05 significant by two-tailed, paired t-test (A and I). M: mature form, I: immature form, H: hgh mass, L: low mass.
FIGS. 10A-10F show calpain regulates FICD generation. (A and B) Human CD14+ cells were cultured with M-CSF (20 ng/ml) for 8 hours to induce early signals and then (A) MDL 28170(0, 1, 2, 5 uM) or (B) PD150606 (0, 2, 5 uM) was added for 2 days. […]

[5] = test system: soluble c-FMS (ectodomain shedding of c-FMS); assay: Soluble c-FMS in culture media of human CD14+ cells, ELISA; type: cell-based; details: BB94 10 uM for 2 days after 8 hours M-CSF (20 ng/ml)
Method: FIGS. 8A-8I show c-FMS expression in synovial macrophages. (A) The levels of M-CSF in synovial fluids from patients with rheumatoid arthritis (RA, n=13) and osteoarthritis (OA, n=8) were measured. (B) Mass spectrometry analysis for proteins from ˜50 kDa bands (red box) identified c-FMS as one of top genes. An image of coomassie blue stained genes showing immunoprecipitated cells lysates with either anti-DDK-tag antibodies or IgG control. (C-G) Human CD14+ cells were cultured with M-CSF (20ng/ml). Immunoblot of c-FMS with different antibodies against C-terminal of c-FMS; (C) C-20, (D) D-8, and (E) #3152. Immunoblot of c-FMS with different antibodies against N-terminal of c-FMS; (F) #61701, (G) H-300. (H-I) Human CD14+ cells were cultured with M-CSF (20 ng/ml) for 8 hours to induce early signals, and then BB94 (10 uM) was added for 2 days. […] (I) Soluble c-FMS was detected by ELISA (n=3). […]
c-FMS and M-CSF in synovial fluids and the supernatants of cell culture was measured using sandwich ELISA kit (R&D Systems; DY329 and DY216) according to manufacturer's instructions. C-telopeptide of type I collagen (CTX-1) and Procollagen 1 N-Terminal Propeptide (P1NP) in Serum from WT and FICDtg^M mice were measured using RatLapstm EIA kit (Immunodiagnostic Systems; AC-06F1) or P1NP-ELISA kit (Cloud-Clone corp; SEA957Mu) according to the manufacturer's instructions.

[6] = DAPT 10uM for 2 days after 8 hours M-CSF (20 ng/ml)

Molecule: denosumab: an anti-RANKL antibody
- RA disease activity [1]: without affecting
- progression of arthritic bone erosion [1]: shows efficacy

Molecule: O=C(O)/C(S)=C/c1ccc(I)cc1 [PD150606]
- inhibition of L-FICD generation (hit in screening) [2]: best hits

Molecule: C[C@H](NC(=O)Cc1cc(F)cc(F)c1)C(=O)N[C@H](C(=O)OC(C)(C)C)c1ccccc1 [DAPT, N-[N-(3,5-difluorophenacetyl)-L-alanyl]-S-phenylglycine t-butyl ester]
- cytosol and nuclear FICDs [3, 6]: suppressed
- membrane-bound FICD [3, 6]: membrane-bound FICD accumulated

Molecule: CNC(=O)[C@H](Cc1ccccc1)NC(=O)[C@H](CC(C)C)[C@H](CSc1cccs1)C(=O)NO [BB94]
- generation of FICDs [4]: suppressed the generation of FICDs
- ectodomain shedding of c-FMS, soluble c-FMS in the media [5]: inhibited the ectodomain shedding of c-FMS; also recorded: inhibited the shedding of c-FMS and diminished soluble c-FMS in the media

B1: IL-34: ligand for c-FMS (protein, UniProt Q6ZMJ4 21-242, looked up)
Interleukin-34: NEPLEMWPLTQNEECTVTGFLRDKLQYRSRLQYMKHYFPINYKISVPYEGVFRIANVTRLQRAQVSERELRYLWVLVSLSATESVQDVLLEGHPSWKYLQEVETLLLNVQQGLTDVEVSPKVESVLSLLNAPGPNLKLVRPKALLDNCFRVMELLYCSCCKQSSVLNWQDCEVPSPQSCSPEPSLQYAATQLYPPPPWSPSSPPHSTGSVRPVRAQGEGLLP
- generation of H-FICD and L-FICD and cellular distribution of FICDs [3]: induced

B2: M-CSF: ligand for c-FMS (protein, UniProt P09603 33-554, looked up)
Macrophage colony-stimulating …: EEVSEYCSHMIGSGHLQSLQRLIDSQMETSCQITFEFVDQEQLKDPVCYLKKAFLLVQDIMEDTMRFRDNTPNAIAIVQLQELSLRLKSCFTKDYEEHDKACVRTFYETPLQLLEKVKNVFNETKNLLDKDWNIFSKNCNNSFAECSSQDVVTKPDCNCLYPKAIPSSDPASVSPHQPLAPSMAPVAGLTWEDSEGTEGSSLLPGEQPLHTVDPGSAKQRPPRSTCQSFEPPETPVVKDSTIGGSPQPRPSVGAFNPGMEDILDSAMGTNWVPEEASGEASEIPVPQGTELSPSRPGGGSMQTEPARPSNFLSASSPLPASAKGQQPADVTGTALPRVGPVRPTGQDWNHTPQKTDHPSALLRDPPEPGSPRISSLRPQGLSNPSTLSAQPQLSRSHSSGSVLPLGELEGRRSTRDRRSPAEPEGGPASEGAARPLPRFNSVPLTDTGHERQSEGSFSPQLQESVFHLLVPSVILVLLAVGGLLFYRWRRRSHQEPQRADSPLEQPEGSPLTQDDRQVELPV
- generation of H-FICD and L-FICD and cellular distribution of FICDs [3]: induced
